PubChem BioAssay (NCI)
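GI50 = concentration required for 50% inhibition of growth. TGI is the concentration that stops growth completely.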

What was measured:
Experiment in all cases: NCI-60 cell line screen, 384-well format
M14 melanoma = tested on: M14 melanoma
OVCAR-4 ovarian = tested on: OVCAR-4 ovarian
HS 578T breast = tested on: HS 578T breast
SK-MEL-28 melanoma = tested on: SK-MEL-28 melanoma
KM12 colon = tested on: KM12 colon
SNB-75 CNS = tested on: SNB-75 CNS
HOP-92 NSCLC = tested on: HOP-92 NSCLC
NCI-H460 NSCLC = tested on: NCI-H460 NSCLC
MOLT-4 leukemia = tested on: MOLT-4 leukemia
SK-MEL-5 melanoma = tested on: SK-MEL-5 melanoma
SF-295 CNS = tested on: SF-295 CNS
SF-268 CNS = tested on: SF-268 CNS
TK-10 renal = tested on: TK-10 renal
ACHN renal = tested on: ACHN renal
NCI-H522 lung = tested on: NCI-H522 lung
786-0 renal = tested on: 786-0 renal
HCT-15 colon = tested on: HCT-15 colon
SK-OV-3 ovarian = tested on: SK-OV-3 ovarian
DU-145 prostate = tested on: DU-145 prostate
OVCAR-3 ovarian = tested on: OVCAR-3 ovarian
CCRF-CEM leukemia = tested on: CCRF-CEM leukemia
MDA-MB-468 breast = tested on: MDA-MB-468 breast
UACC-62 melanoma = tested on: UACC-62 melanoma
MALME-3M melanoma = tested on: MALME-3M melanoma

For `COCCOc1cc(F)c2c(Nc3ccc(NC(=O)Cn4cc(C(C)C)nn4)cc3)ncnc2c1`, the TGI (M14 melanoma) was > 100 µM, the GI50 (OVCAR-4 ovarian) was > 100 µM and the TGI (OVCAR-4 ovarian) was > 100 µM. The GI50 (HS 578T breast) was 12.2 µM, the TGI (HS 578T breast) was 82.3 µM and the GI50 (SK-MEL-28 melanoma) was > 100 µM. For the same compound, the TGI (SK-MEL-28 melanoma) was > 100 µM, the GI50 (KM12 colon) was 560 nM and the TGI (KM12 colon) was > 100 µM. The GI50 (SNB-75 CNS) was 11.9 µM, the TGI (SNB-75 CNS) was > 100 µM and the GI50 (HOP-92 NSCLC) was 30.7 µM. For the same compound, the TGI (HOP-92 NSCLC) was > 100 µM, the GI50 (NCI-H460 NSCLC) was 31.7 µM and the TGI (NCI-H460 NSCLC) was > 100 µM. The GI50 (MOLT-4 leukemia) was 3.68 µM, the TGI (MOLT-4 leukemia) was 18.7 µM and the GI50 (SK-MEL-5 melanoma) was 11.2 µM. The TGI (SK-MEL-5 melanoma) was > 100 µM, the GI50 (SF-295 CNS) was > 100 µM and the TGI (SF-295 CNS) was > 100 µM. For the same compound, the GI50 (SF-268 CNS) was 43.1 µM, the TGI (SF-268 CNS) was > 100 µM and the GI50 (TK-10 renal) was 29.8 µM. The TGI (TK-10 renal) was > 100 µM, the GI50 (ACHN renal) was > 100 µM and the TGI (ACHN renal) was > 100 µM. It also gave a GI50 (NCI-H522 lung) of 18.1 µM, a TGI (NCI-H522 lung) of 92.3 µM and a GI50 (786-0 renal) of 49.7 µM. For the same compound, the TGI (786-0 renal) was > 100 µM, the GI50 (HCT-15 colon) was 24.9 µM and the TGI (HCT-15 colon) was > 100 µM. The GI50 (SK-OV-3 ovarian) was 86.1 µM, the TGI (SK-OV-3 ovarian) was > 100 µM and the GI50 (DU-145 prostate) was 75 µM. The TGI (DU-145 prostate) was > 100 µM, the GI50 (OVCAR-3 ovarian) was 50.7 µM and the TGI (OVCAR-3 ovarian) was > 100 µM. The GI50 (CCRF-CEM leukemia) was 7.64 µM, the TGI (CCRF-CEM leukemia) was 37.9 µM and the GI50 (MDA-MB-468 breast) was 7.69 µM. For the same compound, the TGI (MDA-MB-468 breast) was > 100 µM, the GI50 (UACC-62 melanoma) was 31.1 µM and the TGI (UACC-62 melanoma) was > 100 µM. For the same compound, the GI50 (MALME-3M melanoma) was 25 µM and the TGI (MALME-3M melanoma) was > 100 µM.
